Reference: PMC10366102, “Dose escalation and expansion cohorts in patients with advanced breast cancer in a Phase I study of the CDK7-inhibitor samuraciclib” (Nature Communications, 2023)
Where two headings read alike, the source gives them in different places.

Columns and labels:
[1] = tested on: HR+/HER2− advanced breast cancer patients post-CDK4/6 inhibitor; conditions: female, human, in vivo
Protocol: In each cohort the dose of fulvestrant was 500 mg every 28 ± 2 days, with an additional 500 mg dose given 14 ± 2 days after the first dose. Cohort 1 tested samuraciclib 240 mg OD continuous dosing. If the DLT stopping criteria were not met, Cohort 2 commenced enrollment at the Module 1A MTD. Patients underwent regular safety monitoring and 8-week scans reported using RECIST V1.1[32].
As Module 1A was a ‘first time in human’ safety study, initial efficacy was evaluated as a secondary endpoint using the DCR, defined as the percentage of patients with a complete response (CR), PR or stabilization of disease at first on treatment RECIST assessment. To allow for the evaluation of longer-term benefit, Module 1B-1 and Module 2A used the CBR as a secondary endpoint, defined as the percentage of patients with CR or PR or stabilization of disease for at least 24 weeks between enrollment and disease progression or death due to any cause. In addition, the ORR was assessed, defined as the percentage of patients who had at least 1 objective response (CR or PR) prior to any evidence of progression. […] Statistical analyses of PFS using the Kaplan-Meier method were performed on the ITT population - defined as all enrolled patients. AEs were summarized from the Safety Population - defined as all patients who received at least 1 dose of samuraciclib - using the MedDRA system organ class (SOC), preferred term (PT), and graded according to CTCAE V5.0 (Supplementary Information).
DLTs recorded in the first cycle. Patients were considered evaluable if they completed the first cycle or
discontinued therapy in the first cycle due to a DLT. Patients in a cohort were replaced if they could not
complete the first cycle unless this was due to a DLT.
Part A was planned to have two dose cohorts with up to 6 evaluable patients to be enrolled per
cohort. In each cohort, the dose of fulvestrant was fixed at the standard dose of 500mg given at intervals
of 28±2 days with an additional 500mg dose given 14±2 days after the first dose. Fulvestrant was
administered as two consecutive slow intramuscular (IM) injections (1-2 minutes) of 250mg in 5 mL,
one in each buttock (gluteal area). Pre-and peri-menopausal women also had to have commenced
treatment with a luteinizing hormone-releasing hormone (LHRH) agonist at least 4 weeks prior to first
dose of study medication. Patients continued to receive treatment in 28-day cycles until they no longer
gained clinical benefit or they discontinued treatment.
Cohort 1 tested samuraciclib at 240mg OD as monotherapy, which is approximately 33% lower than the
current maximum tolerated dose (MTD) of 360mg. If no DLT was recorded in Cycle 1 in the first 3
evaluable patients, Cohort 2 commenced enrolment at 360mg of samuraciclib OD.
DLT in Cohort 1, a further 3 evaluable patients were assessed.
started enrolment. If ≥ 2/3 or ≥ 2/6 patients in Cohort 1 experienced a DLT, dose escalation was
stopped. In Cohort 2, if 0/3 or 1/3 evaluable patients experienced a DLT, the cohort was expanded to 6
patients. If ≥ 2/3 or ≥ 2/6 patients experienced a DLT, the Cohort 1 dosing regimen (samuraciclib at
240mg and fulvestrant at 500mg) was determined as the preliminary Phase 2 dosing regimen. If < 2/6
considered the recommended Phase 2 regimen.
The SRC was convened to decide whether and when to open the second samuraciclib dosing cohort and
which dosing regimen to advance to randomized Phase 2 testing. If the SRC considered safety and/or
patients who had at least one response of complete response (CR) or partial response (PR) prior to any
evidence of progression. The percentage change in tumor size was derived at each tumor imaging
assessment by the best percentage change from baseline in the sum of the diameters of target lesions. In
Module 1A initial efficacy was evaluated using the disease control rate (DCR) defined as percentage of
participants with a complete response (CR) or partial response (PR) or stabilization of disease at first on
treatment RECIST assessment.

[2] = tested on: patients with advanced malignancies; experiment: Safety pooled across study modules; type: in vivo
Protocol: These were summarized by Medical Dictionary for Regulatory
adverse events (SAEs) were analyzed and reported separately. Details of any deaths were listed. All
were listed individually by patient and summarized descriptively. For urinalysis parameters, any
positive. Abnormal physical examina tion findings were listed.

[3] = design: method as in ref IB; conditions: ref IB, cited from earlier work
human tumour xenograft = tested on: human tumour xenograft; design: method as in ref IB; conditions: ref IB, cited from earlier work
Han Wistar rats = conditions: rats 15 or 60 mg/kg/day and beagle dogs 20 mg/kg/day, 7 days; ref IB; cited from earlier work
[4] = Module 1 (both parts) and Module 2A
[5] = as of 16 November 2020, 115 patients

CC(C)c1cnn2c(NCc3ccccc3)cc(NC[C@H]3CCNC[C@@H]3O)nc12 [samuraciclib, Samuraciclib]
Discontinued due to related gastrointestinal AEs [1]: 23%
Discontinued due to unrelated AEs [1]: 5 patients
Drug-related: ALT increased [1]: 3 (9.7) patients (%)
Drug-related: AST increased [1]: 4 (12.9) patients (%)
Drug-related: Abdominal pain [1]: 7 (22.6) patients (%)
Drug-related: Abdominal pain (second line so named) [1]: 4 (12.9) patients (%)
Drug-related: Anaemia [1]: 2 (6.5) patients (%)
Drug-related: Constipation [1]: 2 (6.5) patients (%)
Drug-related: Decreased appetite [1]: 9 (29.0) patients (%)
Drug-related: Dehydration [1]: 2 (6.5) patients (%)
Drug-related: Diarrhoea [1]: 28 (90.3) patients (%)
Drug-related: Dry mouth [1]: 2 (6.5) patients (%)
Drug-related: Dry skin [1]: 2 (6.5) patients (%)
Drug-related: Dysgeusia [1]: 4 (12.9) patients (%)
Drug-related: Dysphagia [1]: 3 (9.7) patients (%)
Drug-related: Fatigue [1]: 11 (35.5) patients (%)
Drug-related: Flatulence [1]: 2 (6.5) patients (%)
Drug-related: Headache [1]: 4 (12.9) patients (%)
Drug-related: Mouth ulceration [1]: 2 (6.5) patients (%)
Drug-related: Mucosal inflammation [1]: 2 (6.5) patients (%)
Drug-related: Muscular weakness [1]: 2 (6.5) patients (%)
Drug-related: Nausea [1]: 25 (80.6) patients (%)
Drug-related: Rash [1]: 3 (9.7) patients (%)
Drug-related: Stomatitis [1]: 2 (6.5) patients (%)
Drug-related: Taste disorder [1]: 2 (6.5) patients (%)
Drug-related: Thrombocytopenia [1]: 3 (9.7) patients (%)
Drug-related: Vomiting [1]: 23 (74.2) patients (%)
Drug-related: Weight decreased [1]: 2 (6.5) patients (%)
Participants with any drug-related TEAE [1]: 30 (96.8) patients (%)
Events of Grade 4 thrombocytopenia ([2]; 1 at 180mg BID and 1 at 360mg OD): 2 events
Events of Grade 1 platelet count decreased ([2]; 1 at 240mg OD and 2 at 360mg): 3 events
Patients with at least one AE considered related to samuraciclib ([2]; 96/98 patients, Modules 1A, 1B-1, 2A): 98.0%
Events of neutropenia/white blood cell count decreased ([2]; Grade 1 at 360mg OD and 180mg BID): 2 events
Deaths considered related to samuraciclib treatment [2, 4]: None
Patients who died following an AE [2, 4]: 5 patients
SAEs considered related to study treatment [2, 4]: 6
Serious adverse events (not including deaths) [2, 4]: 27 patients
Recovery of platelets after stopping samuraciclib ([2]; Module 1B-1 and Module 2A): ≤ 28 days
Patients with diarrhoea, nausea and vomiting ([2]; across dose levels, largely Grade 1, as of 16 November 2020): more than 75%
Events of anaemia [2, 5]: 16 events
Events of increased ALT [2, 5]: 14 events
Events of increased AST [2, 5]: 16 events
Platelet related AEs [2, 5]: 13
Events of Grade 1 thrombocytopenia ([2]; at 360mg OD): 4 events
Events of Grade 2 platelet count decreased ([2]; at 360mg OD): 1 event
Events of Grade 2 thrombocytopenia ([2]; at 360mg OD): 2 events
Events of Grade 3 thrombocytopenia ([2]; at 360mg OD): 1 event
Thrombocytopenia reported as Grade ≥4 ([2]; discussion): 3 patients
Overall turnover ([3]; human hepatocytes): low
Phase II metabolism (e.g., glucuronidation) ([3]; mouse and human hepatocytes): No evidence
Anti-tumour efficacy (human tumour xenograft; 100 mg/kg/day): robust efficacy
Anti-tumour efficacy (human tumour xenograft; 30 and 50 mg/kg/day): moderate efficacy
Reticulocyte numbers (Han Wistar rats): significant decrease
